The text below walks through data of US11925696B2, “Carbonic anhydrase IX targeting agents and methods” (priority 2016, dated 2024).

SMILES strings stand for the structures. Like-named read-outs stand apart in the source and are kept apart here.

In one data set the test system is HT-29 tumor xenografts. Type of data set: in vivo, mice. The protocol:
Mice bearing HT-29 tumors were injected via tail vein with 4 nmol Hypoxyfluor alone or in combination with 100-fold excess CA IX inhibitor. Fluorescence images were acquired 4 hours post injection.
Tissues and organs were excised after whole animal imaging and the fluorescence images of the isolated tissues were acquired.
Mice bearing HT-29 tumors were injected via tail vein with the indicated concentrations of Hypoxyfluor and fluorescence images were acquired 4 hours post injection.
Using a 25-gauge needle, six-week-old female nu/nu mice were inoculated subcutaneously in their shoulders with HT-29 cells in RPMI1640 medium (5.0×10^6 cells per mouse). Tumor growth was measured in 2 perpendicular directions every 2 days with a caliper. Tumor volumes were calculated using the formula 0.5×L×W^2, where L is the measurement of the longest axis and W is the measurement of the axis perpendicular to L. Tumor bearing mice were treated via tail vein injection with different concentrations of Hypoxyfluor in the presence or absence of 100-fold CA IX ligand to block all unoccupied CA IX binding sites. Mice were imaged 4 hours post injection using a Caliper IVIS Lumina II Imaging station coupled to an ISOON5160 Andor Nikon camera equipped with Living Image Software Version 4.0. Image acquisition settings were as follows: lamp level, high; excitation, […]; emission, ICG; epi illumination; binning (M) 4; FOV, 12.5; f-stop, 4; acquisition time, 1 s.

Data set [1] has as its system HT-29 cells. Description: Fluorescent/confocal microscopy of Hypoxyfluor and CA IX-Rhodamine on HT-29 cells. It counts as cell-based, human. Particulars: 1 hour incubation, unbound conjugate washed off.
Protocol: HT-29 cells (10^5) were seeded into chambered coverglass plates and allowed to grow to confluence over 48-72 hr. […] After incubation for 1 hour at 37° C., cells were rinsed three times with 1 mL of incubation solution to remove unbound fluorescence and 0.5 mL of fresh medium was added to the wells.
HT-29 cells that naturally express CA IX were used to determine cancer cell uptake and binding affinity of the newly synthesized conjugate. […] Fluorescence was quantitated as described above to determine binding affinity.
For data set [2], the system named is HT-29 cells. In words: Binding of Hypoxyfluor to HT-29 cells (cell associated fluorescence). Set-up: species or system human. The procedure: After washing, the remaining fluorescence was quantitated by fluorescence spectroscopy. Error bars represent standard deviation.
HT-29 cells (10^5) were seeded into 24-well BD purecoat amine plates and allowed to grow to confluence over 48-72 hr. Spent medium was replaced with 0.5 mL of fresh medium containing 0.5% bovine serum albumin, and various concentrations of the dye conjugate alone or the dye conjugate plus 100-fold excess CA IX ligand were added. After incubation for 1 hour at 37° C., cells were rinsed with incubation solution (2×1.0 mL) to remove unbound fluorescence and dissolved in 0.5 mL of 1% aqueous sodium dodecyl sulfate. Cell associated fluorescence was then measured using an excitation of 745 nm and emission of 790 nm. All experiments were performed in triplicate. The dissociation constant (KD) was calculated from a plot of cell bound fluorescence (RFU) versus the concentration of fluorescent conjugate added using the program, Graphpad Prism, and assuming a noncooperative single site binding equilibrium.

In data set [3] the test system is HT-29 cells. Description: 99mTc conjugates binding to HT-29 cells (apparent KD, gamma counting). Set-up: species or system human. The procedure:
HT-29 cells (150,000 cells/well in 500 μL) were seeded into 24-well Falcon plates and allowed to form monolayers over 48 h. […] After incubating for 1 h at 37° C., cells were rinsed twice with 1 mL of medium and 1 mL of tris buffer. After dissolving in 0.5 mL of 0.25 M NaOH (aq), cells were transferred into individual γ-counter tubes and radioactivity was counted using a γ-counter (Packard, Packard Instrument Company). Apparent KD was calculated by plotting bound radioactivity versus the concentration of radiotracer using GraphPad Prism 4.

The next data set deals with HT-29 xenografts. Particulars: mouse, in vivo.
Setting [4] is: 4 nmol tail vein, 4 hours post injection.

Protocol for HT-29 xenografts: Additional mice were simultaneously injected with 100 nmol of unlabeled L2 or L3 ligand. Major tissues/organs were removed and the amount of radioactivity was determined. The percentage of injected dose/g of tissue was calculated and plotted. Error bars represent standard deviation.
Five-week-old male nu/nu mice were inoculated subcutaneously with HT-29 cells (5.0×10^6/mouse) on their shoulders. Growth of the tumors was measured in two perpendicular directions every 2 days using a caliper (body weights were monitored on the same schedule), and the volumes of the tumors were calculated as 0.5×L×W^2 (L=longest axis and W=axis perpendicular to L in millimeters). […] At various times, animals were sacrificed by CO2 asphyxiation. Images were acquired by shielding the kidneys via a Kodak Imaging Station (In-Vivo FX, Eastman Kodak Company) in combination with CCD camera and Kodak molecular imaging software (version 4.0). Radioimages: illumination source=radio isotope, acquisition time=3 min, f-stop=4, focal plane=5, FOV=160, binning=4. […] Radioactivity of preweighed tissues and ^99mTc-bound conjugates (10 nmol, 150 μCi) in saline (100 μL) was counted in a γ-counter. CPM values were decay corrected, and results were calculated as % injected dose (ID)/gram of wet tissue.

For the compound `COC(=O)N(CCN(CC(=O)NCCOCCOCCOCCOCCOCCOCCOCCOCCOCCOCCOCCOCCC(=O)CCCc1ccc(OC2=C(/C=C/C3=[N+](CCCCS(=O)(=O)O)c4ccc(S(=O)(=O)O)cc4C3(C)C)CCC/C2=C\C=C2\N(CCCCS(=O)(=O)O)c3ccc(S(=O)(=O)O)cc3C2(C)C)cc1)CC(=O)Nc1ccc(S(N)(=O)=O)cc1)CC(=O)Nc1ccc(S(N)(=O)=O)cc1` [Hypoxyfluor], in the data set with HT-29 tumor xenografts (setting [4]), the whole animal fluorescence result is on record as “predominately detected in the tumor” and the “whole animal fluorescence with 400 nmol CA IX ligand” value is reported as “no fluorescent signal could be detected”. The “whole body fluorescence, dose escalation” value with HT-29 tumor xenografts (40 nmol/mouse) is listed as “nontumor associated fluorescence became apparent”. For the same compound, in the data set on HT-29 tumor xenografts (low and intermediate doses (3 and 13 nmol)), the “whole body fluorescence, dose escalation” value was “fluorescence was restricted to the tumor”. Also, the “location of binding on cultured HT-29 cells” value in the data set with HT-29 cells [1] is “binding was seen on both the cell surface and internal endosomes”. Besides, the Kd with HT-29 cells [2] (1 hour at 37° C., excitation 745 nm, emission 790 nm, triplicate, read-out: apparent dissociation constant) is 45 nM. Also, the “binding after pre-incubation with 100-fold excess of the unconjugated ligand” value with HT-29 cells [2] (HT-29 cells) was “binding was competed”.

For `N[C@H](CNC(=O)CCOCCOCCOCCOCCOCCOCCOCCOCCOCCOCCOCCOCCNC(=O)CN(CCN(CC(=O)O)CC(=O)Nc1ccc(S(N)(=O)=O)cc1)CC(=O)Nc1ccc(S(N)(=O)=O)cc1)C(=O)N[C@@H](CC(=O)O)C(=O)NC[C@H](CS)C(=O)O` [L2-PEG12-EC20], the Kd in the data set with HT-29 cells [3] (99mTc-bound conjugate, 1 h at 37° C., read-out: Binding Affinity (apparent KD)) worked out at 54 nM. In addition, the “decrease of binding by addition of the PEG12-EC20” value with HT-29 cells [3] (binding affinity of conjugate versus reported Ki of original ligand) is ~7 fold. Besides, in the data set with HT-29 xenografts, the “overall percentage of the injected dose retained in the tissues” value was “somewhat lower overall percentage of the injected dose being retained in the tissues”.
